# Data from patent publication US20250295804A1, “PEG BASED ANTI-CD47/ANIT-PD-L1 BISPECIFIC ANTIBODY-DRUG CONJUGATE” (Shenzhen Enduring Biotech, Ltd., priority 2022, published 2025).
# Experiments:
# BxPC-3 tumor cells = assay: FACS selective binding assay, tumor cells; type: cell-based; details: BxPC-3, 30 min at 4° C.
# Protocol: (§1) Briefly, freshly prepared red blood cells (from healthy donors) and BxPC-3 tumor cells (Procell, Wuhan, China) were used as target cells. […] The cells were washed at least twice with PBS and analyzed with flow cytometry after incubation.
# [1] = tested on: red blood cells (from healthy donors); assay: FACS selective binding assay, red blood cells; type: cell-based; details: 30 min at 4° C.
# Protocol: as §1
substance,measurement,setting,value
"Hu5F9-G4: anti-CD47 antibody, expressed and prepared in house [reference compound]",binding to target cells,BxPC-3 tumor cells,specifically bind
same,binding to target cells,[1],binds with high affinity
